# Experiments:
# carrageenin edema = assay: Effect on Carrageenin Edema; type: in vivo, ICR mice; conditions: for Degree of edema (%): 2 h after carrageenin, mean ± SE, control 47.4 ± 2.8
# Method: The effect on carrageenin edema was tested by using ICR mice in groups of 6-7. Specifically, Compound 3 was orally administered thereto in a dose of 3 or 30 mg/kg body weight. As a positive control drug, indomethacin was similarly administered in a dose of 20 mg/kg body weight. After 30 minutes, 25 μl of a 1% carrageenin solution was subcutaneously injected into the sole of the right hind leg. Two hours after the administration of carrageenin, the thickness of the sole was measured with digital vernier calipers, and the degree of edema (%) based on the thickness measured before administration was calculated.
# [1] = tested on: neogenesis of tumor vessels induced by the transplanted mouse tumor S180; assay: Inhibitory Effect on Vascularization Using the Mouse Back Subcutaneous Transplantation Method; type: in vivo, male ICR mouse; conditions: for Vascularization score: 5 days, mean ± SE, control 2.93 ± 0.07
# Method: The inhibitory effect of Compounds 1 and 3 in accordance with the present invention on the neogenesis of tumor vessels induced by the transplanted mouse tumor S180 was tested using the mouse back subcutaneous transplantation method. Specifically, 1×10^7 S180 cells were injected into a chamber formed by attaching a Millipore filter having a pore size of 0.45 μm to either side of a Millipore ring. After the injection hole was stopped up, this chamber was transplanted into an air sac formed beneath the skin of the back of a male ICR mouse (9-10 weeks old). Starting from the day of transplantation, a test compound or a solvent control comprising a 0.5% carboxymethylcellulose solution was orally administered for 5 days. After the skin was separated on the fifth day of transplantation, an O-ring of 10 mm internal diameter having the same shape as the Millipore ring was placed on the part of the skin which had been in contact with the chamber, observed under a stereoscopic microscope, and photographed.
# In the photographs so taken, the degree of vascularization was rated 0, 1, 2 or 3 according to the number of 3 mm or longer tortuous blood vessels characteristic of tumoral vessels, and scored on the following basis.
# 0: No tumoral vessel was observed.
# 1: One tumoral vessel was observed.
# 2: Two tumoral vessels were observed.
# 3: Three or more tumoral vessels were observed.
compound,measurement,setting,value
"COc1cc(O)c2c(=O)oc(C(C)C(=O)O)cc2c1 (centres unmarked) [Compound 3, 2-(8-hydroxy-6-methoxy-1-oxo-1H-2-benzopyran-3-yl)propionic Acid]",effect on carrageenin edema (in words),carrageenin edema; doses of 3 and 30 mg/kg,no inhibitory effect on carrageenin edema
same,Degree of edema (%),carrageenin edema; oral 3 mg/kg,41.7 ± 3.1%
same,Degree of edema (%),carrageenin edema; oral 30 mg/kg,46.1 ± 4.2%
same,Vascularization score,"[1]; oral 0.3 mg/kg, n = 10",2.40 ± 0.4
same,Vascularization score,"[1]; oral 1.0 mg/kg, n = 11",1.55 ± 0.43
same,Vascularization score,"[1]; oral 3 mg/kg, n = 14",0.86 ± 0.33
same,Vascularization score,"[1]; oral 10 mg/kg, n = 14",0.86 ± 0.38
same,inhibition of vascularization induced by tumor cell S180 (in words),"[1]; oral, 1-10 mg/kg body weight",significantly inhibited vascularization

# Source: patent US6020363A, “Isocoumarin derivatives and use thereof in drugs” (Mercian Corporation, priority 1998, dated 2000)
